The conditions of data set [1]: cited from earlier work.
Another data set concerns tumor cells. Kind of data set: Tumoricidal dose 50% (TD50) comparison. Particulars: 66.7 mg/ml BCNU in absolute ethanol. The text has this:
Operationally, where cytotoxic, the antineoplastic agent is preferably dissolved in the organic solvent to a concentration such that when a therapeutically effective volume of the antineoplastic solution of the invention is delivered into a neoplastic mass, there results a dose of the agent solute in said mass of at least two logs greater than its tumoricidal dose 50% (TD50), that is, the concentration of agent in said mass that kills 50% of the tumor cells. This ensures that a supralethal concentration of the agent is delivered throughout at least a substantial volume of the tumor mass when the resulting antineoplastic solution is injected directly into the substance of the tumor. As the organic vehicle permeates the tumor mass it transports a therapeutically effective, neoplastically lethal concentration of the cytotoxic agent solute therewith. In this way high levels of the cytotoxic antineoplastic agent can be delivered discretely and with relative safety to the tumor mass. In another sense the water miscible organic vehicle component of the solution can be considered to increase the solubility of the agent within the tumor mass, thereby allowing therapeutically effective toxic levels of the antineoplastic agent to invest the tumor. […]

The conditions of data set [2]: cited from earlier work. This is another data set of the same source.
A short description of data set [3]: Stability of BCNU in ethanol, organic vehicles and aqueous solution. Type of data set: physicochemical. Particulars: ethanol vehicle of the exemplary solution.
The conditions of data set [4]: cited from earlier work. This is another data set of the same source.
A short description of data set [5]: Operative mortality following intratumoral injection. Type of data set: in vivo, rat (male CDF, Fischer 344). The note with it: following intratumoral BCNU solution injection; 4/72. On the procedure:
Rats were anesthetized with ether and pentobarbital sodium (25-30 mg/kg) and placed into the stereotactic frame. The clips and bone wax were carefully removed. The BCNU solution was delivered directly into the tumor through a
Hamilton microsyringe set to the same coordinates and using the same technique as used in the initial tumor implantation. As before, the operative field was cleaned with povidone-iodine solution and the scalp was closed with clips.
The following paradigm was used to assess therapeutic efficacy of the intra-tumorally delivered BCNU antineoplastic solution. All animals received tumor implantation on day zero (0). Controls received no treatment, vehicle controls received a single intratumoral injection of absolute ethanol on day 7. One experimental group received a single injection of intratumoral BCN dissolved in absolute ethanol at a dose of 5 mg/kg body weight on day 7.

Another data set in a line: Lethal dose of BCNU. Type of data set: in vivo. The note with it: intraperitoneal BCNU in rats. Here is the method:
All intratumoral injections used this 66.7 mg/ml formulation directly. This concentration is about three to four logs greater than the tumoricidal dose 50%. […] This cannot be extrapolated to man, however, because of differences in cross-species toxicity.

Data set [6] has as its system T9 gliosarcoma. Nature of the data set: Survival of rats bearing intracerebral T9 gliosarcoma after intratumoral BCNU solution. The class given is in vivo, rat (male CDF, Fischer 344). The note with it: for % ILS (percent increase in life span): vs control.
For data set [7] the following is noted: rat, in vivo; cited from earlier work.
Data set [8] concerns T9 gliosarcoma. The note with it: cited from earlier work.
For another data set, the system named is ependymoblastoma. The note with it: intratumoral injection(s), up to ten; suspended in 0.4% aqueous methylcellulose in most suitable formulation; cited from earlier work.
For data set [9] the following is noted: delivered systemically; cited from earlier work.
The mark [10] stands for this setting: Group 4: IT BCNU 5 mg/kg day 7 + IP BCNU 5 mg/kg day 12, n=14.

Entries after “also recorded” stand apart in the source; their conditions may differ. Where two headings read alike, the source gives them in different places.

With `O=NN(CCCl)C(=O)NCCCl` [BCNU, 1,3-bis(2-chloroethyl)-1-nitrosourea], the water solubility result in data set [1] is given as “inherently low water solubility”. The “concentration of the formulation above the tumoricidal dose 50%” value in the data set with tumor cells is listed as “about three to four”. For the same molecule, the “half life in serum” value in data set [2] was “about 15 minutes”. Besides, in data set [3], the solubility in ethanol result is recorded as “soluble to highly cytotoxic levels in ethanol”. The “stability and bioavailability in ethanol” value in data set [3] is “remains stable and bioavailable therein”. Moreover, in [4] (aqueous solution), the “stability in aqueous solution” value is given as “not very stable in aqueous solution”. Further, in data set [4] (ethanol), the stability in ethanol entry is recorded as “stable in ethanol”. For the same molecule, the “stability in organic water miscible solvent vehicles” value in data set [4] (organic water miscible solvent vehicles, compared with aqueous solution) is recorded as “far more stable in the organic water miscible solvent vehicles”. In data set [5], this molecule had an Operative mortality of 5.5%. Also, the “dose of 5 mg/kg as percentage of the LD10” value in the data set “Lethal dose of BCNU” was approximately 40%. Moreover, the “% ILS (percent increase in life span)” value is given as 322% in the data set with T9 gliosarcoma [6] (Group 3: single IT BCNU 5 mg/kg in absolute ethanol, day 7, n=42); 472% with T9 gliosarcoma [6] (setting [10]); 433% in the data set with T9 gliosarcoma [6] (Groups 3 + 4 combined, n=56). Further, the “% Cures” value with T9 gliosarcoma [6] (Group 3: single IT BCNU 5 mg/kg, day 7, n=42) turned out to be 43%; in the data set with T9 gliosarcoma [6] (setting [10]), 36%; with T9 gliosarcoma [6] (Groups 3 + 4 combined, n=56), 41%. Further, the “MDS (median day of survival following tumor implantation)” value with T9 gliosarcoma [6] (Group 3: single intratumoral (IT) injection of BCNU in absolute ethanol, 5 mg/kg, day 7, n=42) is on record as 76 days; in the data set with T9 gliosarcoma [6] (Group 4: IT BCNU in absolute ethanol 5 mg/kg day 7 + IP BCNU 5 mg/kg in 7.5% aqueous ethanol day 12, n=14) it was 103 days; with T9 gliosarcoma [6] (Groups 3 + 4 combined, n=56) it was 96 days. Further, the “animals living a normal lifespan” value in the data set on T9 gliosarcoma [6] (Groups 3 + 4, 600-700 days) is on record as “nineteen”. Further, in the data set on T9 gliosarcoma [6] (Groups 3 + 4, days 121, 136, 307, 384), the “animals sacrificed healthy, no observable viable T9 gliosarcoma” value is reported as “four”. Also, the “therapeutic benefit of adding intraperitoneal BCNU to intratumoral BCNU solution” value with T9 gliosarcoma [6] (IT + IP vs IT only) is on record as “did not statistically enhance the therapeutic benefit”. Moreover, the “animals which live a normal life span” value in the data set with T9 gliosarcoma [6] (intratumoral BCNU solution treated group, 600-700 days) is recorded as 41%. In addition, the “animals that die, phase one” value in the data set on T9 gliosarcoma [6] (intratumoral BCNU solution treated group, days 18-24) was found to be 23%. In addition, the “animals that die, second phase” value in the data set with T9 gliosarcoma [6] (intratumoral BCNU solution treated group, days 25 to 166) turned out to be 30%. Further, the “animals that die, third phase” value in the data set on T9 gliosarcoma [6] (intratumoral BCNU solution treated group, days 251-325) was 5%. The “lethal dose 10%” value in [7] was 13.3 mg/kg. Also, the ILS is reported as 57% in the data set with T9 gliosarcoma [8] (BCNU 5 mg/kg, delivered intra-arterially) and 180% with T9 gliosarcoma [8] (BCNU 13.3 mg/kg, delivered intravenously or intra-arterially). For the same molecule, the “improvement in life span” value in the data set on T9 gliosarcoma [8] (BCNU 5 mg/kg, delivered systemically) was “no improvement in life span”. Further, the “cures in animals bearing this tumor, prior to this experiment” value with T9 gliosarcoma [8] (any mode of delivery previously known) is listed as “neither BCNU nor any other antineoplastic agent has ever produced cures in animals bearing this tumor; also recorded: neither BCNU nor any other single antineoplastic agent has ever been known to produce a single cure in this tumor model”.

As to `O=NN(CCCl)C(=O)NC1CCCCC1` [CCNU, 1-(2-chloroethyl)-3-cyclohexyl-1-nitrosourea], the water solubility entry in data set [1] is reported as “water insoluble”. Also, the “increase in life span” value in the data set with ependymoblastoma is reported as “only modest increases in life span”.

Regarding `C[C@H]1CC[C@H](NC(=O)N(CCCl)N=O)CC1` [Me-CCNU, 1-(2-chloroethyl)-3-(trans-4-methylcyclohexyl)-1-nitrosourea], the water solubility entry in data set [1] was “water insoluble”. Further, the “increase in life span” value in the data set with ependymoblastoma is “only modest increases in life span”.

Take `COc1cccc2c1C(=O)c1c(O)c3c(c(O)c1C2=O)C[C@@](O)(C(=O)CO)C[C@@H]3O[C@H]1C[C@H](N)[C@H](O)[C@H](C)O1` [adriamycin]: the organ specific toxicity entry in data set [9] is recorded as “cardiotoxicity”.

bleomycin: in data set [9], the organ specific toxicity result was “lung toxicity”.

Values taken from patent publication US5162115A, “Antineoplastic solution and method for treating neoplasms” (priority 1991, dated 1992).
